Assay results published in article PMC5095700 (Biochemistry, 2016).

Molecular target: T1, Glucosamine/glucosaminide N-acetyltransferase (GlmA) (Clostridium acetobutylicum, UniProt Q97ML2, Y297F)
T1 sequence (Q97ML2 1-320 Y297F): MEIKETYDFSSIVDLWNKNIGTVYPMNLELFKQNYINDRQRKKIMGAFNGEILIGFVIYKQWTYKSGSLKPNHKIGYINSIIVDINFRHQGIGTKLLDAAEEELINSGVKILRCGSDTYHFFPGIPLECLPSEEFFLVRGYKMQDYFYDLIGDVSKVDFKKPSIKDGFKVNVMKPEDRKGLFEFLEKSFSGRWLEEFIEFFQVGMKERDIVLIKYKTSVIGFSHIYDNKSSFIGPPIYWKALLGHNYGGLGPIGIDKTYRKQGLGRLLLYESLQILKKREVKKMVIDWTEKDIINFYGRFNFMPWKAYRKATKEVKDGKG
Test: X-ray crystal structure of Y297F variant
Type: binding

Structure (SMILES): CC(=O)SCCNC(=O)CCNC(=O)[C@H](O)C(C)(C)COP(=O)(O)OP(=O)(O)OC[C@H]1O[C@@H](n2cnc3c(N)ncnc32)[C@H](O)[C@@H]1OP(=O)(O)O [AcCoA, acetyl CoA]
- X-ray crystal structure of Y297F variant (1.8 Å): electron density was clearly visible for the acetyl group of the cofactor bound in the C-terminal domain
